From patent publication US20120264810A1, “COMPOSITIONS AND METHODS FOR ENHANCING CELLULAR UPTAKE AND INTRACELLULAR DELIVERY OF LIPID PARTICLES” (The University of British Columbia, priority 2009, published 2012)

Assays:
[1] = system: GAPDH protein expression in LNCaP cells; experiment: GAPDH siRNA-LN knockdown in LNCaP cells; type: cell-based, human; settings: data not shown
Protocol: FIG. 5: Raw264.7 cells were treated for 24 hours with siRNACy3 encapsulated in DLinDMA LNs in the presence or absence of 5% CQ-lipid. A lipid label, SPDiO, was incorporated into the LN to monitor uptake. LN uptake was assessed by (A) SPDiO fluorescence and distribution of siRNA was assessed by (B) Cy3 fluorescence using the Cellomics ArrayScan VTI. (C) Raw264.7 cells were incubated with the same LN formulations as in (B) for 24 hours at 10 μg/mL siRNACy3. siRNACy3 distribution was examined by confocal microscopy. (D) GAPDH siRNA was formulated into LN particles comprising of 40% DLinDMA with 0% CQ-lipid or 40% DLinDMA with 5% CQ-lipid. Raw264.7 cells were treated with 5, 10 and 20 μg/mL of siRNA for 48 and 72 hours. GAPDH protein expression was assessed by western blotting against anti-GAPDH and anti-actin. (E) LNCaP cells were treated accordingly as in (D).
Perhaps most importantly, we wanted to determine whether the enhanced cytosolic distribution of siRNACy3 observed with the CQ-lipid correlated to enhanced gene knockdown. Glyceraldehyde 3-phosphate dehydrogenase (GAPDH) is an ubiquitously expressed cytosolic protein and therefore knockdown efficiency of encapsulated siRNA can be tested in different cell lines (Barber et al., 2005). Raw264.7 cells were treated with LN of varying concentration of GAPDH siRNA for 24, 48 and 72 hours. Total protein was isolated and analyzed for GAPDH levels by immunoblotting. […] The function of GAPDH siRNA was specific since actin expression was unaltered (FIG. 5D). To confirm the function of the CQ-lipid in the LN-siRNA-mediated gene knockdown, GAPDH silencing was also assessed in LNCaP cells (FIG. 5E).

[2] = system: HeLa cells; experiment: LNP uptake in HeLa cells (SPDiO fluorescence, Cellomics / confocal); type: cell-based, human; settings: 30 nM ouabain, 24 hrs, confocal quantification
Protocol: All cell lines were seeded at 5000 to 20,000 cells/well of 96-well ViewPlate (PerkinElmer, Shelton, Conn., USA) in 100 μl of medium and were allowed to grow overnight. Fresh medium containing 5 or 10 μg/ml of siRNA encapsulated in LNP was added the next day. Small molecules were either added manually or pinned from 1000-fold stocks in DMSO using a pinning robot equipped with 0.4 mm pins (BioRobotics, Cambridge, UK). Cells were incubated for 24 h. Cells were then washed once in PBSCM (1×PBS containing […] CaCl2), fixed in 3% paraformaldehyde containing Hoescht's stain for 15 min, washed once in PBSCM and stored in 100 μl of PBSCM.
Plates were imaged using a Cellomics Arrayscan VTI HCS Reader (Thermo Scientific, Pittsburgh, Pa., USA). Images were acquired using a 20× PlanFluor objective and a XF93 filter set. Object identification and image analysis were performed using the Cellomics Compartmental Analysis algorithm. Cellular SPDiO and siRNA-Cy3 fluorescence intensities were measured for a minimum of 400 cells and the average pixel intensity was examined. For confocal microscopy, cells grown on glass coverslips were washed once in 1×PBS, fixed in 3% paraformaldehyde containing Hoechst's stain for 15 min, washed again and mounted on slides. Images were captured on an Olympus FV1000 (Olympus, Center Valley, Pa., USA) laser scanning microscope and cellular SPDiO fluorescence intensity was analyzed using ImageJ (NIH, http://rsb.info.nih.gov/ij/).

[3] = system: GAPDH expression in HeLa cells; experiment: siGAPDH-LNP knockdown by immunoblotting in HeLa cells; type: cell-based, human
Protocol: HeLa cells were plated in twelve-well plates for indicated times. They were then washed in PBS and extracted in RIPA buffer (1% NP-40 and 0.5% Deoxycholic in 1×PBS) supplemented with protease inhibitor tablets (Roche Diagnostics). Total protein quantified by the Bradford Assay was analyzed by immunoblotting using antibodies to GAPDH, β-actin (Abcam, Cambridge, Mass.) or ATP1A1 ((Millipore, Billerica, Mass.). Antigen-antibody complexes in immunoblots were detected using Millipore Immobilon Western Chemiluminescent HRP Substrate (Millipore, Billerica, Mass.).
Knockdown effect of our LNP systems in the presence or absence of ouabain was also examined (FIG. 9B). GAPDH was chosen as a target gene since it is ubiquitously expressed at high levels in all cell types. siGAPDH or negative control siScramble was encapsulated in our LNP systems and incubated with cells for 24 hrs in the presence or absence of ouabain. Cells were further incubated in plain medium for 48 hrs before protein expression was analyzed. We observed that cells incubated continuously with ouabain for longer than 24 hrs were unhealthy (data not shown). […] It is noteworthy that LNP encapsulating siGAPDH or siScramble contained 1 mol % of PEG-s-DMG. […]

[4] = molecular target: human α1-isoform of Na+/K+-ATPase (Homo sapiens, UniProt P05023); settings: cited from earlier work
[5] = molecular target: rodent α1-isoform of Na+/K+-ATPase (Rattus norvegicus, UniProt P06685); settings: cited from earlier work

## C[C@@H]1O[C@@H](O[C@H]2C[C@@H](O)[C@]3(CO)[C@H]4[C@H](O)C[C@]5(C)[C@@H](C6=CC(=O)OC6)CC[C@]5(O)[C@@H]4CC[C@]3(O)C2)[C@H](O)[C@H](O)[C@H]1O [ouabain]
[1]
  GAPDH knockdown with ouabain: enhanced GAPDH knockdown
[2]
  cellular SPDiO fluorescence (LNP content) relative to untreated cells: 2.5 times
[3]; incubated continuously with ouabain for longer than 24 hrs (data not shown)
  cell health on continuous incubation: unhealthy
[3]; siGAPDH-LNP 10 ug/ml with 30 nM ouabain 24 h, then 48 hrs fresh medium
  Expression of GAPDH: substantially reduced
[4]
  sensitivity to ouabain: highly sensitive
[5]
  sensitivity to ouabain, less than human α1-isoform: 1000 fold
